Key:
[1] = heart failure patients, continuous intravenous treatment, cited from earlier work
β-ARs = details: heart failure patients, continuous intravenous treatment; cited from earlier work
rtPDE3A = rtPDE3A (Homo sapiens, UniProt Q14432); test: PDE3 activity assay, cAMP hydrolysis with and without cilostazol; type: biochemical; details: 0.1 μmol/L cilostazol; read-out: inhibition of rtPDE3A, submaximal (printed as IC44)
Protocol: cAMP-hydrolytic activity was quantified according to the method of Kincaid and Manganiello (1988) as described in detail previously (Movesian et al., 1991). Briefly, microsomal fractions were added to a reaction mixture containing 0.3 mol/L NaHEPES, 0.6 mmol/L EGTA, […] MgCl2 (pH 7.5) and 0.1 μmol/L [^3H]cAMP (Perkin Elmer, Boston, Mass.). cAMP hydrolysis occurred for 10 minutes at 30° C., then the reaction was stopped by the addition of 10.1 mmol/L unlabeled cAMP and […] unlabeled 5′AMP in 0.25 mol/L HCl. The reaction mixture was neutralized with NaOH. [^3H]5′AMP was converted to [^3H]adenosine by incubation with Crotalus atrox venom (30 mg/ml) for 30 minutes at 30° C. The reaction mixture was then applied to QAE-Sephadex columns, and [^3H]adenosine was eluted with water. Cyclic AMP hydrolysis in pmol/min/mg was determined by measuring [^3H]adenosine in the eluent. PDE activity was measured in the presence and absence of 0.1 μmol/L cilostazol, a concentration that inhibits rtPDE3A submaximally (IC44); PDE3 activity was calculated by dividing the difference in activity in the presence and absence of cilostazol by the fractional inhibition of PDE3 activity at this concentration.

PDE3A promoter = PDE3A promoter (INS/DEL) luciferase reporter in transfected NRVMs; type: cell-based, rat; details: for luciferase activity of the DEL promoter construct: DEL construct containing the CRE; for luciferase activity of the DEL promoter construct / up-regulation of PDE3A expression, INS construct (luciferase): 1 μmol/L dibutyryl cAMP or 5 μmol/L enoximone for 48 hours
Protocol: Neonatal rat ventricular myocytes (NRVMs) were prepared from the hearts of 2-day-old rat pups by enzymatic digestion as described (Simpson et al., 1982; Waspe et al., 1990; Singh et al., 2000).
Cloning of the PDE3A promoter region was performed using PCR primers that amplified the −1434/+440 region of the human promoter that contains the INS/DEL genotype. The resulting fragment was cloned in the Promega pGL3-basic vector using MluI and BglII sites as previously described (Sucharov et al., 2003). Cloning of the construct that lacks the cAMP response element (CRE) was done by amplifying the −1066/+440 region of the PDE3A promoter downstream from the CRE site.
Firefly luciferase plasmid DNA was transfected using the Lonza system as previously described (Sucharov et al., 2008). […] Luciferase activity was determined as previously described (Sucharov et al., 2003).

Chain of rtPDE3A (Q14432 whole entry): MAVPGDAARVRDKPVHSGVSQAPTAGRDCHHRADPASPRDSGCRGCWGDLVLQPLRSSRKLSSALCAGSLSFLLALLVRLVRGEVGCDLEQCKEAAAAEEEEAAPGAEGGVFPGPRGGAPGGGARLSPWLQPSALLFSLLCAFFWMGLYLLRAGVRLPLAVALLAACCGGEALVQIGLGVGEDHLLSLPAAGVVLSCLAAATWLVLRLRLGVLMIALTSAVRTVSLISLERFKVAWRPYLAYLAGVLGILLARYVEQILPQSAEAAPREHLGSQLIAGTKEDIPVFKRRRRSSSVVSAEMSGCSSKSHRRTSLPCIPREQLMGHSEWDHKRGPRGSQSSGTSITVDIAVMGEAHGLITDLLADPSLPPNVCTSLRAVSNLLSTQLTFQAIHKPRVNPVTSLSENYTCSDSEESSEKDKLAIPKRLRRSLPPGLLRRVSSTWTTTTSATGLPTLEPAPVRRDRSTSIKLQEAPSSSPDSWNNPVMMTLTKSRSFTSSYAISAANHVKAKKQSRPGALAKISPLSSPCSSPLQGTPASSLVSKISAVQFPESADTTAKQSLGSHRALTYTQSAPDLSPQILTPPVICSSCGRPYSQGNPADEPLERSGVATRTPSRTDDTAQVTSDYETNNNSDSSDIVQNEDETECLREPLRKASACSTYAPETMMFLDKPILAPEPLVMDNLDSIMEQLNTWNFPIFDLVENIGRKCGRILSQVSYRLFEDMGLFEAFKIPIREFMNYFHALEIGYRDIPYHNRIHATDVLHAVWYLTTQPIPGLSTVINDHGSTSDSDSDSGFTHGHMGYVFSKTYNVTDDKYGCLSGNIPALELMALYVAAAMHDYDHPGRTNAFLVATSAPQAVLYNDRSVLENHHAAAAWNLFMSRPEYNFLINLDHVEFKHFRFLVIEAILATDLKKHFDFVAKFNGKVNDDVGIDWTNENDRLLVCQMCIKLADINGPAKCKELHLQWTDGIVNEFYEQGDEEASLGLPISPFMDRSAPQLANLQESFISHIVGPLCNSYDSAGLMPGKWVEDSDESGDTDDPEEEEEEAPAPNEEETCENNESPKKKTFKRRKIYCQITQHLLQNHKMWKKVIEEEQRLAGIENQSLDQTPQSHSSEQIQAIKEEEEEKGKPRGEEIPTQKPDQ

Structure (SMILES): Nc1cc(-c2ccncc2)c[nH]c1=O [amrinone]
- cardiac output at 24 hours ([1]; 24 hours): increase
- cardiac output by 72 hours ([1]; 72 hours): return to baseline values
- β-ARs in lymphocytes of treated patients (β-ARs): Down-regulation and desensitization

Structure (SMILES): O=C1CCc2cc(OCCCCc3nnnn3C3CCCCC3)ccc2N1 [cilostazol]
- inhibition at 0.1 µM (rtPDE3A): 44%

Structure (SMILES): CCCC(=O)Nc1ncnc2c1ncn2[C@@H]1O[C@@H]2COP(=O)(O)O[C@H]2[C@H]1OC(=O)CCC [dibutyryl cAMP]
- luciferase activity of the DEL promoter construct (PDE3A promoter): increased luciferase activity
- cAMP-induced increase in promoter activity, DEL construct with CRE sequence deleted (PDE3A promoter; DEL construct lacking the CRE (-1066/+440), 48 hours): prevented
- up-regulation of PDE3A expression, INS construct (luciferase) (PDE3A promoter): no evidence of up-regulation

Structure (SMILES): CSc1ccc(C(=O)c2[nH]c(=O)[nH]c2C)cc1 [enoximone]
- luciferase activity of the DEL promoter construct (PDE3A promoter): increased luciferase activity
- up-regulation of PDE3A expression, INS construct (luciferase) (PDE3A promoter): no evidence of up-regulation

— patent US20200239957A1, “PREDICTION AND TREATMENT OF HEART FAILURE” (The Regents of the University of Colorado, a body corporate, priority 2013, published 2020)
